Assay results taken from patent publication US12011444B2, “N-substituted indole derivatives as PGE2 receptor modulators” (Idorsia Pharmaceuticals Ltd, priority 2015, dated 2024).

Columns and labels:
EP2 = EP2 (Homo sapiens (Human), UniProt P43116);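 also: antagonism of PGE2-stimulated cAMP accumulation in SF295 human glioblastoma cells with endogenous EP2, cAMP read by HTRF, expressed relative to DMSO control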
Excerpt: Human tumor cell lines expressing endogenously either EP4 or EP2 are used and cAMP accumulation in cells upon PGE2 stimulation is monitored. SF295 glioblastoma cells express high endogenous EP2 and no EP4, whereas BT549 breast cancer cells, express high endogenous EP4 levels and very low EP2 levels.
As a detection method for cAMP the HTRF (homogeneous time resolved fluorescence) Cisbio kit (HTRF cAMP dynamic 2 kit 20′000 tests Cisbio Cat. #62AM4PEC) was used, which is based on a competitive immunoassay using a Cryptate-labeled anti-cAMP antibody and d2-labeled cAMP. Native cAMP produced by cells or unlabeled cAMP (for the standard curve) compete with exogenously added d2-labeled cAMP (acceptor) for binding to monoclonal anti-cAMP-Eu3+Cryptate (donor). A FRET signal (Fluorescence Resonance Energy Transfer) is obtained only if the labeled anti-cAMP antibody binds the d2 labelled cAMP, thus the specific signal (i.e. energy transfer) is inversely proportional to the concentration of cAMP in the standard or sample.
The SF295 cells (NCI/No. 0503170) are detached from culture dishes with a cell dissociation buffer (Invitrogen, 13151-014), and collected in growing medium (GM: RPM11640 (Invitrogen 21875)/10% FCS, 1% Penicilin/streptomycin). Cells are counted washed and resuspended in assay buffer (AB; HBSS, 20 mM HEPES, 0.2% BSA; 2 mM IBMX). 4,000 cells in 5 μl of AB are seeded per well of a small volume 384 well plate (black with flat bottom, Greiner 784076).
PGE2 (Cayman 14010, stock solution: 75 μM in DMSO) is used as agonist at 75 nM final concentration, corresponding to EC80.
Two point five microliters of diluted compounds are transferred into the assay plate. Plate is pre-incubated 45 minutes at room temperature. Subsequently, 2.5 microliters of PGE2 (final conc. 75 nM) are transferred into the assay plate. Plate is incubated 30 minutes at room temperature. Five μl of each donor (anti-cAMP cryptate) and acceptor (cAMP-d2) are added and the plate is incubated another hour at room temperature in the dark and then read using a BMG LABTECH PHERAstar reader (Excitation: 337 nm, Emission: 620 and 665 nm).
The obtained Delta F (fluorescence) values (665 nm/620 nM) are converted into % cAMP values using the measurements of the cAMP calibrator provided in the kit. For each compound concentration the percentage of cAMP compared to DMSO control value as average±STDEV (each concentration is measured in duplicate) is calculated.
IC50 values and curves are generated with XLfit software (IDBS) using Dose-Response One Site model 203. When compounds were measured multiple times, mean values are given.

EP4 = EP4 (Homo sapiens (Human), UniProt P35408); assay: hEP4 cAMP assay (BT549 breast cancer cells, HTRF cAMP); type: cell-based; settings: antagonistic activity; mean values where measured multiple times
Sequence of EP4 (P35408 whole entry): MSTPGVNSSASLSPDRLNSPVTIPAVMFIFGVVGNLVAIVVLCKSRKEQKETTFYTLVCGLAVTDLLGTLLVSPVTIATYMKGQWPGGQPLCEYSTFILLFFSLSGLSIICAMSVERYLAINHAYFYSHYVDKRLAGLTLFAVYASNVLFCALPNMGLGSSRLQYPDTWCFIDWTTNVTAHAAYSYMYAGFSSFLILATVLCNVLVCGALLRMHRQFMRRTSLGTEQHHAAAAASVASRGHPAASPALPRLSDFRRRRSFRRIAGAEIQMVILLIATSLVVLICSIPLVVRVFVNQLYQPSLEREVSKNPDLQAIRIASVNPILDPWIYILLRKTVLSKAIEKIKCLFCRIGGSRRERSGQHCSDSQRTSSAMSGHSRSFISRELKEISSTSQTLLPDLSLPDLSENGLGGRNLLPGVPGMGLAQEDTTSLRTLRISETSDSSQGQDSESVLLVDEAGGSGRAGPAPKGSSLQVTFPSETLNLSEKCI
Procedure: Plate is pre-incubated 45 minutes at room temperature. Subsequently, 2.5 microliters of PGE2 (final conc. 6 nM) are transferred into the assay plate. Plate is incubated 30 minutes at room temperature.

Sequence of EP2 (P43116 whole entry): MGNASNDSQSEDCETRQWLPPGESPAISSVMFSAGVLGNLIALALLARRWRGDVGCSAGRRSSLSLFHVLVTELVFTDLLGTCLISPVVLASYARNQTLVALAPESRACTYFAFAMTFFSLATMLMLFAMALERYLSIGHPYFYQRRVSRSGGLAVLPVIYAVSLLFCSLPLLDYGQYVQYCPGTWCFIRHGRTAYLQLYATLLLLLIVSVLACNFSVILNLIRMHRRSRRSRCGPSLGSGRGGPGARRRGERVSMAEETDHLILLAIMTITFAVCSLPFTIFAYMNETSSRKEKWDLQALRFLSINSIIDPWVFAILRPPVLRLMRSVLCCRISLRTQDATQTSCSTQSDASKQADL

Row | Structure (SMILES) | IC50 (EP2) [µM] | IC50 (EP4) [µM]
1 | Cc1nc(CCC(=O)O)oc1-c1ccc(-c2cc(NCCn3c(C)cc4c(C)cc(F)c(F)c43)ncn2)cc1 [compound 653] | 0.428 | 0.527
2 | COc1ccc(F)c2c1cc(C)n2CCNc1cc(-c2ccc(-c3onc(C)c3C(=O)O)cc2)ncn1 [compound 596] | 0.01 | 0.222
3 | Cc1cc(F)cc2c1cc(C)n2CCNc1cc(-c2ccc3ncccc3c2)ncn1 [compound 732] | 0.041 | 0.341
4 | CCOc1cc(-c2cc(NCCn3c(C)cc4c(C)c(F)c(F)cc43)ncn2)ccc1C(=O)O [Example 787, 4-{6-[2-(5,6-Difluoro-2,4-dimethyl-indol-1-yl)-ethylamino]-pyrimidin-4-yl}-2-ethoxy-benzoic acid] | 0.021 | 0.729
5 | COc1ccc(F)c2c1cc(C)n2CCNc1cc(-c2ccc(C3(C(=O)O)CCCC3)cc2)ncn1 [Example 791, 1-(4-{6-[2-(7-Fluoro-4-methoxy-2-methyl-indol-1-yl)-ethylamino]-pyrimidin-4-yl}-phenyl)-cyclopentanecarboxylic acid] | 0.325 | 0.639
6 | COc1ccc(Cl)c2c1cc(C)n2CCNc1cc(-c2ccc(C(=O)O)c(OC(F)(F)F)c2)ncn1 [compound 605] | 0.048 | 0.829
7 | COc1cc(F)cc2c1cc(C)n2CCNc1cc(-c2ccc(-c3ncccn3)cc2)ncn1 [Example 755, [2-(6-Fluoro-4-methoxy-2-methyl-indol-1-yl)-ethyl]-[6-(4-pyrimidin-2-yl-phenyl)-pyrimidin-4-yl]-amine] | 0.041 | 0.452
8 | Cc1cc(F)cc2c1cc(C)n2CCNc1cc(-c2ccc(-c3ccccn3)cc2)ncn1 [compound 730] | 0.03 | 0.489
9 | COc1ccc(F)c2c1cc(C)n2CCNc1cc(-c2ccc(-c3cnc(CCC(=O)O)o3)cc2)ncn1 [compound 646] | 0.048 | 0.312
10 | COc1ccc(F)c2c1cc(C)n2CCNc1cc(-c2ccc3oc(C)nc3c2)ncn1 [compound 688] | 0.08 | 0.68
11 | Cc1cc(F)cc2c1cc(C)n2CCNc1cc(-c2cc(Cl)c(C(=O)O)c(OCC(F)(F)F)c2)ncn1 [compound 723] | 0.037 | 0.287
12 | COc1cc(F)cc2c1cc(C)n2CCNc1cc(-c2ccc(-c3ncc(F)cn3)cc2)ncn1 [Example 762, [2-(6-Fluoro-4-methoxy-2-methyl-indol-1-yl)-ethyl]-{6-[4-(5-fluoro-pyrimidin-2-yl)-phenyl]-pyrimidin-4-yl}-amine] | 0.098 | 0.304
13 | CNS(=O)(=O)c1ccc(-c2cc(NCCn3c(C)cc4c(C)ccc(F)c43)ncn2)cc1C(F)(F)F [compound 563] | 0.111 | 0.601
14 | COc1cc(F)c(F)c2c1cc(C)n2CCNc1cc(-c2ccc(C(=O)O)c(CC(C)C)c2)ncn1 [compound 621] | 0.034 | 0.057
15 | COc1cccc2c1cc(C)n2CCNc1cc(-c2ccc(-c3csc(C)n3)cc2)ncn1 [compound 566] | 0.046 | 0.537
16 | CCCOc1cc(-c2cc(NCCn3c(C)cc4c(C)cc(F)cc43)ncn2)cc(F)c1C(=O)O [compound 524] | 0.036 | 0.377
17 | COc1cc(F)c(F)c2c1cc(C)n2CCNc1cc(-c2ccc(-c3ccno3)cc2)ncn1 [compound 745, [2-(6,7-Difluoro-4-methoxy-2-methyl-indol-1-yl)-ethyl]-[6-(4-isoxazol-5-yl-phenyl)-pyrimidin-4-yl]-amine] | 0.025 | 0.84
18 | Cc1ccc(F)c2c1cc(C)n2CCNc1cc(-c2ccc(-c3ccccn3)cc2)ncn1 [compound 561] | 0.102 | 0.374
19 | COc1cc(F)c(F)c2c1cc(C)n2CCNc1cc(-c2ccc(-c3oncc3C)cc2)ncn1 [compound 738] | 0.063 | 0.177

Continued, values first:

Row | IC50 (EP2) [µM] | IC50 (EP4) [µM] | Structure (SMILES)
20 | 0.002 | 0.039 | CCCCOc1cc(-c2cc(NCCn3c(C)cc4c(OC)ccc(F)c43)ncn2)ccc1C(=O)O [compound 615]
21 | 0.006 | 0.714 | COc1cccc2c1cc(C)n2CCNc1cc(-c2ccc(C(=O)O)c(OC(F)(F)F)c2)ncn1 [compound 499]
22 | 0.004 | 0.056 | CCCCOc1cc(-c2cc(NCCn3c(C)cc4c(OC)cc(F)cc43)ncn2)ccc1C(=O)O [compound 611]
23 | 0.006 | 0.109 | Cc1cc(F)cc2c1cc(C)n2CCNc1cc(-c2ccc(-c3ncno3)cc2)ncn1 [compound 685, [2-(6-Fluoro-2,4-dimethyl-indol-1-yl)-ethyl]-[6-(4-[1,2,4]oxadiazol-5-yl-phenyl)-pyrimidin-4-yl]-amine]
24 | 0.005 | 0.034 | CCCc1cc(-c2cc(NCCn3c(C)cc4c(OC)cc(F)cc43)ncn2)cc(Cl)c1C(=O)O [compound 519]
25 | 0.008 | 0.105 | COc1cc(F)cc2c1cc(C)n2CCNc1cc(-c2ccc(-c3nccs3)cc2)ncn1 [Example 751, [2-(6-Fluoro-4-methoxy-2-methyl-indol-1-yl)-ethyl]-[6-(4-thiazol-2-yl-phenyl)-pyrimidin-4-yl]-amine]
26 | 0.004 | 0.032 | COc1ccc(F)c2c1cc(C)n2CCNc1cc(-c2ccc(-c3nc(C(=O)O)cs3)cc2)ncn1 [compound 580]
27 | 0.008 | 0.022 | CCNc1cc(-c2cc(NCCn3c(C)cc4c(C)ccc(F)c43)ncn2)ccc1-c1nnn[nH]1 [compound 668, {6-[3-Ethylamino-4-(1H-tetrazol-5-yl)-phenyl]-pyrimidin-4-yl}-[2-(7-fluoro-2,4-dimethyl-indol-1-yl)-ethyl]-amine]
28 | 0.018 | 0.356 | CCOc1cc(-c2cc(NCCn3c(C)cc4c(OC)ccc(Cl)c43)ncn2)ccc1C(=O)O [compound 405]
29 | 0.007 | 0.044 | COc1ccc(F)c2c1cc(C)n2CCNc1cc(-c2ccc3[nH]ccc3c2)ncn1 [compound 700, [2-(7-Fluoro-4-methoxy-2-methyl-indol-1-yl)-ethyl]-[6-(1H-indol-5-yl)-pyrimidin-4-yl]-amine]
30 | 0.018 | 0.023 | COc1ccc(F)c2c1cc(C)n2CCNc1cc(-c2cc(C(F)(F)F)c(C(=O)O)s2)nc(C)n1 [compound 540]
31 | 0.002 | 0.644 | CCOc1cc(-c2cc(NCCn3c(C)cc4ccccc43)ncn2)ccc1-c1nnn[nH]1 [compound 669]
32 | 0.016 | 0.303 | CCOc1cc(-c2cc(NCCn3c(C)cc4c(C)cc(F)cc43)ncn2)cc(F)c1-c1nnn[nH]1 [compound 660]
33 | 0.016 | 0.07 | COc1ccc(F)c2c1cc(C)n2CCNc1cc(-c2ccc(C(=O)O)c(CC(C)C)c2)nc(C)n1 [compound 625]
34 | 0.009 | 0.249 | CCCc1cc(-c2cc(NCCn3c(C)cc4c(OC)ccc(F)c43)ncn2)cc(OC)c1C(=O)O [compound 619]
35 | 0.007 | 0.094 | CCCc1cc(-c2cc(NCCn3c(C)cc4c(OC)cccc43)ncn2)cc(Cl)c1C(=O)O [compound 444]
36 | 0.008 | 0.091 | Cc1ccc(F)c2c1cc(C)n2CCNc1cc(-c2ccc(C(=O)O)c(OCC(C)C)c2)ncn1 [compound 534]
